Laboratory results taken from publication PMC11406516, “The Tuberculosis Drug Candidate SQ109 and Its Analogs Have Multistage Activity against Plasmodium falciparum” (ACS Infectious Diseases, 2024).
Converted amounts (≈) assume the structure as drawn. Where two headings read alike, the source gives them in different places. Marks after values point to notes of the source that are not given here.

What was measured:
HepG2 cells [1] = experiment: HepG2 cytotoxicity, LDH release assay; conditions: Homo sapiens, HepG2, 24 h, read-out: HepG2 EC50
Method: (§1) Furthermore, compounds were evaluated against late (stage IV/V) gametocytes from PfNF54 (PfNF54 LGc), with viability detected with PrestoBlue,[15] and orthogonally evaluated for toxicity against a human hepatocellular carcinoma line, HepG2.[16]
(§2) Human hepatocellular liver carcinoma cells (HepG2) were cultivated in vitro in Dulbecco’s Modified Eagle’s Medium (DMEM) supplemented with 10% (v/v) heat inactivated fetal bovine serum and 1% (v/v) penicillin/streptomycin.[14] Cells were detached with trypsin treatment at 80% confluency and were seeded in 96-well plates to adhere for 24 h under 5% CO2, humid (95%) conditions. Cells were subsequently exposed to drug pressure for 24 h and cytotoxicity was then determined using the lactate dehydrogenase (LDH) release assay through the colorimetric detection at 450 nm, as previously outlined.[4],[16]

PfNF54 ABS [2] = experiment: SYBR Green I proliferation assay, asexual blood stages, drug-sensitive NF54; conditions: for IC50: Plasmodium falciparum, NF54, 96 h, read-out: Pf ABS IC50 NF54
Method: (§3) P. falciparum asexual parasites were cultured from drug-sensitive NF54 (PfNF54) and multidrug resistant strains PfK1. Parasites were maintained in human erythrocytes (O+, suspended at 5% hematocrit) in RPMI-1640 culture medium (23.81 mM sodium bicarbonate, 0.024 mg/mL gentamycin, 25 mM HEPES pH 7.5, 0.2% D-glucose, 0.2 mM hypoxanthine and Albumax II) under hypoxic conditions (5% CO2, 5% O2 and 90% N2) with moderate shaking (60 rpm) at 37 °C. Cultures were synchronized to >95% in the ring stage with 5% (w/v) D-sorbitol treatment.[28]
(§4) Activity against the asexual stage of P. falciparum was evaluated using the SYBR Green I-based fluorescence assay as previously described.[4],[16] Cellular proliferation was measured on synchronized in vitro PfNF54 ring-stage parasites (1% parasitemia, 2% hematocrit), following drug pressure for 96 h. Chloroquine was used as the positive drug control for complete inhibition of parasite proliferation.

physchem = assay type: physicochemical; conditions: 37 °C, pH 6.5, aqueous buffer, thermodynamic from solid
Method: The stock solutions (10^–2 M) of the assayed compounds were diluted to decreased molarity, from 300 to 0.1 μM, in 384 well transparent plate (Greiner 781801) with 1% DMSO:99% PBS buffer. Then, they were incubated at 37 °C and the light scattering was measured after 2 h in a NEPHELOstar Plus (BMG LABTECH). The results were adjusted to a segmented regression to obtain the maximum concentration in which compounds are soluble.
The solubility of each product was evaluated using an HPLC Agilent 1100 with a DAD detector. The samples were injected in an Agilent Poroshell 120 EC-C18, 2.7 μm, 50 mm × 4.6 mm column at 40 °C and 0.6 mL/min flow. The mobile phase was a mixture of A = water with 0.05% formic acid and B = acetonitrile with 0.05% formic acid. The procedure followed was from 95% A–5% B to 100% B in 3 min, 100% B in 3 min, from 100% B to 95% A–5% B in 1 min, 95% A–5% B in 3 min; the injection volume was set at 75 μL. […] The samples remained at these conditions between 12–24 h. Then, the samples were filtered through a 0.45 μm PVDF filter and either directly analyzed or diluted before analyzing. The obtained area under the curve was compared with the one from the standard solution.

male gametes (PfNF54) = experiment: Male gamete exflagellation inhibition assay (EIA); assay type: cell-based; conditions: Plasmodium falciparum; 2 μM, 48 h; read-out: male gamete inhibition %
Method: The EIA was performed using video microscopy by capturing the movement of exflagellation centers over time as previously described.[4],[30] Mature PfNF54 stage V gametocytes (>95%;) were treated with 2 μM of drug for 48 h before the activation of exflagellation, without removing drug pressure. Movement was semi-automatically quantified from 15 videos of 8–10 s each between 15 and 22.5 min after incubation. Each video was analyzed using ICY-bio image analysis software.

PfK1 = experiment: SYBR Green I proliferation assay, asexual blood stages, multidrug-resistant K1; conditions: Plasmodium falciparum, K1, read-out: Pf ABS IC50 K1
Method: as §3, §4

[3] = tested on: PfNF54 LGc (stage IV/V gametocytes); experiment: PrestoBlue late-stage gametocyte viability assay; assay type: cell-based, Plasmodium falciparum; conditions: Plasmodium falciparum; stage IV/V gametocytes, 48 h drug pressure; read-out: PfNF54 LGc IC50
Method: Gametocytogenesis was induced on highly synchronized (>95%) asexual ring-stage parasites from PfNF54 at 0.5% parasitemia and 6% hematocrit and thereafter maintained in glucose-deprived media as previously described.[29],[15] After 3 days, the hematocrit was decreased to 4%. Parasites were maintained in complete culture media supplemented with 50 mM N-acetyl-glucosamine 5–10 days post induction to inhibit proliferation of residual asexual blood stages. Gametocyte progression and morphology was also monitored microscopically using Giemsa-stained thin smears.
activity against the sexual stages of P. falciparum was evaluated using the PrestoBlue fluorescence assay as previously described.[4] Activity was measured on PfNF54 stage IV/V gametocytes (2% gametocytemia, 5% hematocrit) previously seeded with compounds (in non-lethal DMSO) for 48 h drug pressure, after which PrestoBlue reagent was added and incubated for 2 h. Fluorescence was detected in the supernatant at 612 nm. Dihydroartemisinin (DHA) was used as a positive drug control.

PfNF54 ABS [4] = tested on: PfNF54 ABS; design: method as in Stampolaki et al.[5]; conditions: drug-sensitive NF54; ref Stampolaki et al.[5]; read-out: Pf ABS IC50 NF54; cited from earlier work
female gametes = experiment: Female gamete inhibition assay; assay type: cell-based, Plasmodium falciparum; design: concentration or dose not given beside the values
Method: Similarly, female gametes were activated as described previously.[31] Monoclonal anti-Pfs antibody conjugated to FITC was used to detect female gametes. Image acquisition was performed using a Zeiss Axio Lab.A1 epifluorescence microscope with a 100/1.4 numerical aperture (NA) oil immersion. Thirty images were captured per sample and analyzed manually.

oocyst formation = experiment: Standard membrane feeding assay (SMFA), oocyst formation in Anopheles coluzzii; assay type: in vivo; conditions: Plasmodium falciparum, 48 h drug treatment at 2 μM, single biological repeat
Method: Transmission-blocking activity was confirmed in the standard membrane feeding assay (SMFA), by determining transmission-reducing activity (TRA; reduction in oocyst counts) and transmission-blocking activity (TBA, reduction in oocyst prevalence), 8–10 days after feeding female mosquitoes on gametocyte-infected blood, treated with selected compounds (at 2 μM).
SMFA was performed using glass feeders as is outlined.[4],[16] Once again, mature stage V gametocytes (>95%) were treated with 2 μM of each compound for 48 h prior to feeding. Anopheles coluzzii females were allowed to feed on gametocyte cultures (1.5–2.5% gametocytemia, 50% hematocrit in A+ male serum with fresh erythrocytes) in the dark for 40 min. All unfed or partially fed mosquitoes were removed, and remaining females housed for 8–10 days. Mosquitoes were dissected to remove midguts, and oocysts counted under bright field illumination at ×20–×40 magnification. The percentage of block in transmission (transmission-blocking activity; TBA) and the percentage of reduction in the number of oocysts (transmission-reducing activity; TRA) were calculated after normalizing to the control untreated sample.

in vitro = in vitro ADME; conditions: microsomes
Method: The microsomal stability assay used a single-point assay design (Di et al., 2004). Briefly, the compounds were incubated at 1 μM in human, rat, and mouse liver microsomes (0.4 mg/mL) for 30 min at 37 °C. Reactions were quenched by adding ice-cold acetonitrile containing internal standard (carbamazepine, 0.0236 μg/mL). The samples were then centrifuged, and the samples were analyzed by liquid chromatography with tandem mass spectrometry (LC-MS/MS) (Agilent Rapid Resolution HPLC, AB SCIEX 4500 MS) for the disappearance of the parent compound. Half-life, clearance and hepatic […] ratios were determined using standard equations.

HepG2 cells [5] = tested on: HepG2 cells; design: method as in Stampolaki et al.[5]; conditions: compound at 20 μM; ref Stampolaki et al.[5]; cited from earlier work
[6] = HepG2 cytotoxicity, LDH release assay; conditions: human, HepG2 cells
Method: as §1, §2

[7] = read-out: oocyst formation (% inhibition) TBA
[8] = read-out: oocyst formation (% inhibition) TRA

SMILES | EC50 (HepG2 cells [1]) [µM] | fold improvement in ABS activity compared to 1 (PfNF54 ABS [2]; PfNF54 ABS) [fold] | solubility (physchem) [µM] | inhibition at 2 µM (male gametes (PfNF54)) [%] | IC50 (PfK1) [µM] | IC50 [3] [µM] | IC50 (PfNF54 ABS [4]) [µM] | female gamete inhibition % (female gametes) [%] | inhibition at 2 µM (oocyst formation; [7]) [%] | inhibition at 2 µM (oocyst formation; [8]) [%] | IC50 (PfNF54 ABS [2]) [µM] | microsomal CLint at 1 µM (in vitro; human) [µL/min/mg] | microsomal CLint at 1 µM (in vitro; mouse) [µL/min/mg] | microsomal CLint at 1 µM (in vitro; rat) [µL/min/mg] | HepG2 % viability (HepG2 cells [5]) | viability at 24 h, 20 µM [6] [%]
CCC1(NCCNC/C=C(\C)CCC=C(C)C)C2CC3CC(C2)CC1C3 (stereo not shown) [Compound 2] | 5.21 ± 1.33 | 10 | 840 (≈ 301 µg/mL) | 95.5 ± 4.55 | 0.1 ± 0.02 | 0.58 ± 0.04 | 0.16 ± 0.07 | 78.88 ± 4.46 |  |  |  |  |  |  |  | 
CCCCC1(NCCNC/C=C(\C)CCC=C(C)C)C2CC3CC(C2)CC1C3 (stereo not shown) [Compound 3] | 10.2 ± 1.7 |  |  | 81.4 ± 8.64 | 0.13 ± 0.03 | 0.3 ± 0.03 | 0.27 ± 0.04 | 67.05 ± 0.39 | 36 | 11 |  |  |  |  |  | 
CCCC1(NCCNC/C=C(\C)CCC=C(C)C)C2CC3CC(C2)CC1C3 (stereo not shown) [Compound 6] |  |  | 334 (≈ 124 µg/mL) | 34.6 ± 14.3 | 1.33 ± 0.5 | 0.37 ± 0.02 |  | 64.59 ± 12.33 | 67 | 53 | 0.5 ± 0.14 | 322 | 308 | 400 | 100^%c | 
CC(C)=CCC/C(C)=C/CNCCNC1(C)C2CC3CC(C2)CC1C3 (stereo not shown) [Compound 7] |  |  | 773 (≈ 266 µg/mL) | 27.1 ± 14 | 0.86 ± 0.27 | 0.2 ± 0.02 | 0.66 ± 0.16 | 34.05 ± 9.23 |  |  |  | 254 | 348 | 373 | 100%^c | 
CC(C)=CCC/C(C)=C/CNCCNC(C)(C)C1C2CC3CC(C2)CC1C3 (stereo not shown) [Compound 8] |  |  | 2340 (≈ 872 µg/mL) | 23.5 ± 9.72 | 1.61 ± 0.55 | 0.29 ± 0.01 | 0.77 ± 0.1 | 54.00 ± 2.54 |  |  |  | 426 | 218 | 467 | 100%^c | 
CC(C)=CCC/C(C)=C/CNCCNC12CC3CC(CC(C3)C1)C2 [Compound 9] | 12.9 ± 1.4 |  |  | 96.7 ± 3.33 | 2.32 ± 0.55 | 0.7 ± 0.01 |  | 90.50 ± 7.17 | 47 | 70 | 0.99 ± 0.21 |  |  |  |  | 
CC(C)=CCC/C(C)=C/CNCCNC1CC2CCC1C2 (stereo not shown) [Compound 10] |  |  | 155 (≈ 45 µg/mL) |  |  | 0.5 ± 0.07 |  |  |  |  | 1.17 ± 0.2 |  |  |  |  | 97
CC(C)=CCC/C(C)=C/CNCCNC1CC2CCC1CC2 (stereo not shown) [Compound 11] |  |  |  |  |  | 0.22 ± 0.04 |  |  |  |  | 1.66 ± 0.3 |  |  |  |  | 100
CC(C)=CCC/C(C)=C/CNCCNCc1ccccc1 [Compound 12] |  |  | 160 (≈ 45.8 µg/mL) |  |  | 0.41 ± 0.2 |  |  |  |  | 4.32 ± 0.6 |  |  |  |  | 94
CC(C)=CCC/C(C)=C/CN(C)CCNC1C2CC3CC(C2)CC1C3 (stereo not shown) [Compound 14] |  |  |  |  |  | > 10 |  |  |  |  | 1.09 ± 0.35 |  |  |  |  | 100
